Measurements published in patent publication US7994140B2, “Classes of compounds that interact with GPCRs” (Alchemia Limited, priority 2002, dated 2011).

Target: T1, MC4 (Homo sapiens, UniProt P32245)
T1 construct: purchased Perkin Elmer BioSignal; host or cells: HEK 293
Experiment: GPCR radioligand binding (RLB) assay, melanocortin MC4, [125I]NDP-αMSH
Settings: 10 micromolar compound; recombinant human receptor membranes (HEK 293)
How it was run: (§1)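 Membranes from HEK 293 cells expressing the recombinant human receptor were equilibrated with [125I]SST-14 (SST5) or [125I]NDP-αMSH (MC4), then compound added for an optimized incubation. Bound ligand separated by filtration on PEI-coated glass fiber and counted by liquid scintillation.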

T1 sequence (P32245 whole entry): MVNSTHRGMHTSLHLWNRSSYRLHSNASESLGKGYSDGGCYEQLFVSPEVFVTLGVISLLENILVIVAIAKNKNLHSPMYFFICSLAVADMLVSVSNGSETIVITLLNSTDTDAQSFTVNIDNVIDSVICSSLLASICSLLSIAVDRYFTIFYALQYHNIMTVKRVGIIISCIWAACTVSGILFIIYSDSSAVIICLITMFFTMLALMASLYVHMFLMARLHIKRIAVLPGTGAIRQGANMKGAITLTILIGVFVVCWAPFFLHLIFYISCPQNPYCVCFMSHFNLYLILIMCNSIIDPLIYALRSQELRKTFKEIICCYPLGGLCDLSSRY

| SMILES | MC4 inhibition at 10 micromolar |
| --- | --- |
| CSC1O[C@H](COCc2ccc(Cl)cc2)[C@@H](O)[C@H](OCc2cccc(N)c2)[C@H]1NC(=O)Cc1c[nH]c2ccccc12 (stereo partly drawn) [Compound 324] | + (Indicates inhibition greater than . . . 50%) |
| CO[C@H]1[C@H](O)[C@@H](COCc2ccc(-c3ccccc3)cc2)OC(OCc2ccc(-c3ccccc3)cc2)[C@@H]1NC(=O)CNC(=N)N (stereo partly drawn) [Compound 56] | + (Indicates inhibition greater than . . . 50%) |
| CSC1OC(COCc2ccccc2)C(O)C(OCc2ccc3ccccc3c2)C1NC(=O)CN (stereo not drawn) [Compound 191] | + (Indicates inhibition greater than . . . 50%) |
| CSC1OC(COCc2ccc(Cl)cc2)C(O)C(OCc2ccc(-c3ccccc3)cc2)C1NC(=O)CCN (stereo not drawn) [Compound 175] | + (Indicates inhibition greater than . . . 50%) |
| COC[C@H]1OC(OCc2ccc3ccccc3c2)[C@H](NC(=O)CNC(=N)N)[C@@H](OCc2ccc(-c3ccccc3)cc2)[C@@H]1O (stereo partly drawn) [Compound 35] | + (Indicates inhibition greater than . . . 50%) |
| CO[C@H]1[C@H](O)[C@@H](COCc2ccc(Cl)cc2)OC(OCc2ccc(Cl)cc2)[C@@H]1NC(=O)CCCN (stereo partly drawn) [Compound 94] | + (Indicates inhibition greater than . . . 50%) |
| COC[C@H]1OC(OCc2ccc(Cl)cc2)[C@H](NC(=O)CCNC(=N)N)[C@@H](OCc2ccc3ccccc3c2)[C@@H]1O (stereo partly drawn) [Compound 14] | + (Indicates inhibition greater than . . . 50%) |
| CSC1OC(COCc2ccc(-c3ccccc3)cc2)C(O)C(OCc2ccc(Cl)cc2)C1NC(=O)CCNC(=N)N (stereo not drawn) [Compound 158] | + (Indicates inhibition greater than . . . 50%) |
| CSC1OC(COCc2ccc(Cl)cc2)C(O)C(OCc2ccccc2)C1NC(=O)CNC(=N)N (stereo not drawn) [Compound 126] | + (Indicates inhibition greater than . . . 50%) |
| CSC1OC(COCc2ccccc2)C(O)C(OCc2ccc(Cl)cc2)C1NC(=O)CCNC(=N)N (stereo not drawn) [Compound 146] | + (Indicates inhibition greater than . . . 50%) |
| CSC1OC(COCc2ccc(Cl)cc2)C(O)C(OCc2ccc3ccccc3c2)C1NC(=O)CCCNC(=N)N (stereo not drawn) [Compound 202] | + (Indicates inhibition greater than . . . 50%) |
| CSC1OC(COCc2cccc(N)c2)C(O)C(OCc2ccccc2)C1NC(=O)CCC1CNc2ccccc21 (stereo not drawn) [Compound 330] | + (Indicates inhibition greater than . . . 50%) |
| CSC1OC(COCc2ccc(-c3ccccc3)cc2)C(O)C(OCc2ccc(Cl)cc2)C1NC(=O)CNC(=N)N (stereo not drawn) [Compound 156] | + (Indicates inhibition greater than . . . 50%) |
| CSC1OC(COC(=O)Cc2ccccc2)C(O)C(OCc2cccc(N)c2)C1NCc1ccc(Cl)cc1 (stereo not drawn) [Compound 313] | + (Indicates inhibition greater than . . . 50%) |
| CSC1OC(COCc2ccc3ccccc3c2)C(O)C(OCc2ccc3ccccc3c2)C1NC(=O)CCN (stereo not drawn) [Compound 211] | + (Indicates inhibition greater than . . . 50%) |
| CSC1OC(COCc2ccc3ccccc3c2)C(O)C(OCc2ccccc2)C1NC(=O)CCN (stereo not drawn) [Compound 139] | + (Indicates inhibition greater than . . . 50%) |
| COC[C@H]1OC(OCc2ccc3ccccc3c2)[C@H](NC(=O)CCCNC(=N)N)[C@@H](OCc2ccc(Cl)cc2)[C@@H]1O (stereo partly drawn) [Compound 43] | + (Indicates inhibition greater than . . . 50%) |
| CSC1OC(COCc2ccc3ccccc3c2)C(O)C(OCc2ccccc2)C1NC(=O)CNC(=N)N (stereo not drawn) [Compound 138] | + (Indicates inhibition greater than . . . 50%) |

Target: T2, SST5 (Homo sapiens, UniProt P35346)
T2 construct: purchased Perkin Elmer BioSignal; host or cells: HEK 293
T2 sequence (P35346 whole entry): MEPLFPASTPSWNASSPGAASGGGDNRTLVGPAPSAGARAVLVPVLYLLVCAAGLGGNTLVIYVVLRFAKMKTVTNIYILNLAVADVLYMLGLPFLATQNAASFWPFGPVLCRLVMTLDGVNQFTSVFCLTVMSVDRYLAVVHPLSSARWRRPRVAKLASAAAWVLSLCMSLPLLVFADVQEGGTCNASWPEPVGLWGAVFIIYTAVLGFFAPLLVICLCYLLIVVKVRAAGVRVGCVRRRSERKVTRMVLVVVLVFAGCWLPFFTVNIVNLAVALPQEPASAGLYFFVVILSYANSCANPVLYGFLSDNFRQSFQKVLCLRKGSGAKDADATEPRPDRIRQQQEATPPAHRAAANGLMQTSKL
Experiment: GPCR radioligand binding (RLB) assay, somatostatin SST5, [125I]SST-14
Settings: 10 micromolar compound; recombinant human receptor membranes (HEK 293)
How it was run: as §1

| SMILES | SST5 inhibition at 10 micromolar |
| --- | --- |
| CSC1O[C@H](COCc2ccc(Cl)cc2)[C@@H](O)[C@H](OCc2cccc(N)c2)[C@H]1NC(=O)Cc1c[nH]c2ccccc12 (stereo partly drawn) [Compound 324] | + (Indicates inhibition greater than . . . 50%) |
| CO[C@H]1[C@H](O)[C@@H](COCc2ccc(-c3ccccc3)cc2)OC(OCc2ccc(-c3ccccc3)cc2)[C@@H]1NC(=O)CNC(=N)N (stereo partly drawn) [Compound 56] | + (Indicates inhibition greater than . . . 50%) |
| CSC1OC(COCc2ccccc2)C(O)C(OCc2ccc3ccccc3c2)C1NC(=O)CN (stereo not drawn) [Compound 191] | + (Indicates inhibition greater than . . . 50%) |
| CSC1OC(COCc2ccc(Cl)cc2)C(O)C(OCc2ccc(-c3ccccc3)cc2)C1NC(=O)CCN (stereo not drawn) [Compound 175] | + (Indicates inhibition greater than . . . 50%) |
| COC[C@H]1OC(OCc2ccc3ccccc3c2)[C@H](NC(=O)CNC(=N)N)[C@@H](OCc2ccc(-c3ccccc3)cc2)[C@@H]1O (stereo partly drawn) [Compound 35] | + (Indicates inhibition greater than . . . 50%) |
| CO[C@H]1[C@H](O)[C@@H](COCc2ccc(Cl)cc2)OC(OCc2ccc(Cl)cc2)[C@@H]1NC(=O)CCCN (stereo partly drawn) [Compound 94] | + (Indicates inhibition greater than . . . 50%) |
| COC[C@H]1OC(OCc2ccc(Cl)cc2)[C@H](NC(=O)CCNC(=N)N)[C@@H](OCc2ccc3ccccc3c2)[C@@H]1O (stereo partly drawn) [Compound 14] | + (Indicates inhibition greater than . . . 50%) |
| CSC1OC(COCc2ccc(-c3ccccc3)cc2)C(O)C(OCc2ccc(Cl)cc2)C1NC(=O)CCNC(=N)N (stereo not drawn) [Compound 158] | + (Indicates inhibition greater than . . . 50%) |
| CSC1OC(COCc2ccc(Cl)cc2)C(O)C(OCc2ccccc2)C1NC(=O)CNC(=N)N (stereo not drawn) [Compound 126] | + (Indicates inhibition greater than . . . 50%) |
| CSC1OC(COCc2ccccc2)C(O)C(OCc2ccc(Cl)cc2)C1NC(=O)CCNC(=N)N (stereo not drawn) [Compound 146] | + (Indicates inhibition greater than . . . 50%) |
| CSC1OC(COCc2ccc(Cl)cc2)C(O)C(OCc2ccc3ccccc3c2)C1NC(=O)CCCNC(=N)N (stereo not drawn) [Compound 202] | + (Indicates inhibition greater than . . . 50%) |
| CSC1OC(COCc2cccc(N)c2)C(O)C(OCc2ccccc2)C1NC(=O)CCC1CNc2ccccc21 (stereo not drawn) [Compound 330] | + (Indicates inhibition greater than . . . 50%) |
| CSC1OC(COCc2ccc(-c3ccccc3)cc2)C(O)C(OCc2ccc(Cl)cc2)C1NC(=O)CNC(=N)N (stereo not drawn) [Compound 156] | + (Indicates inhibition greater than . . . 50%) |
| CSC1OC(COC(=O)Cc2ccccc2)C(O)C(OCc2cccc(N)c2)C1NCc1ccc(Cl)cc1 (stereo not drawn) [Compound 313] | + (Indicates inhibition greater than . . . 50%) |
| CSC1OC(COCc2ccc3ccccc3c2)C(O)C(OCc2ccc3ccccc3c2)C1NC(=O)CCN (stereo not drawn) [Compound 211] | + (Indicates inhibition greater than . . . 50%) |
| CSC1OC(COCc2ccc3ccccc3c2)C(O)C(OCc2ccccc2)C1NC(=O)CCN (stereo not drawn) [Compound 139] | + (Indicates inhibition greater than . . . 50%) |
| COC[C@H]1OC(OCc2ccc3ccccc3c2)[C@H](NC(=O)CCCNC(=N)N)[C@@H](OCc2ccc(Cl)cc2)[C@@H]1O (stereo partly drawn) [Compound 43] | + (Indicates inhibition greater than . . . 50%) |
| CSC1OC(COCc2ccc3ccccc3c2)C(O)C(OCc2ccccc2)C1NC(=O)CNC(=N)N (stereo not drawn) [Compound 138] | + (Indicates inhibition greater than . . . 50%) |
